Reference: patent US12509431B2, “1,4-dihydroquinazolinone compounds and uses thereof” (Edgewise Therapeutics, Inc., priority 2022, dated 2025)

Key:
Type in all cases: biochemical
Details in all cases: Table 8
[1] = test system: Rabbit Skeletal myofibrils (rabbit psoas muscle); assay: Myofibril ATPase assay (PK/LDH NADH-coupled), skeletal myofibrils
Procedure, shortened: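 ATPase rate taken as linear-regression slope of A340 (NADH depletion through PK/LDH coupling) over a 75 min kinetic read, with psoas-derived rabbit skeletal myofibrils at pH 7.0. Four-parameter fits of vehicle-normalized activity give EC25 and, where reached, EC50.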

Porcine Atria myofibrils = assay: Myofibril ATPase assay (PK/LDH NADH-coupled), atria myofibrils
Procedure, shortened: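 Values are EC25% (and, for inhibitors, EC50%) from 4-parameter logistic fits of activity normalized to vehicle wells. Rates came from linear regression of 340 nm kinetic reads (every 1.5-2 min, 75 min) of NADH-coupled ATP turnover by porcine atria myofibrils.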

[2] = target: T1, Porcine Ventricle myofibrils (left ventricle of Yucatan minipigs) (Sus scrofa, UniProt P79293); assay: Myofibril ATPase assay (PK/LDH NADH-coupled), ventricle myofibrils
T1 construct: Myofibrils from porcine cardiac muscle was isolated from the left ventricle of Yucatan minipigs; tissue Exemplar Genetics; host or cells: left ventricle of Yucatan minipigs
Procedure, shortened: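 NADH depletion (A340) coupled through pyruvate kinase/lactate dehydrogenase reports ATPase rate of porcine left-ventricle myofibrils over 75 min kinetic reads. Regression slopes, vehicle-normalized, fitted by 4-parameter logistic give EC25 and, where available, EC50.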

T1 sequence (P79293 whole entry): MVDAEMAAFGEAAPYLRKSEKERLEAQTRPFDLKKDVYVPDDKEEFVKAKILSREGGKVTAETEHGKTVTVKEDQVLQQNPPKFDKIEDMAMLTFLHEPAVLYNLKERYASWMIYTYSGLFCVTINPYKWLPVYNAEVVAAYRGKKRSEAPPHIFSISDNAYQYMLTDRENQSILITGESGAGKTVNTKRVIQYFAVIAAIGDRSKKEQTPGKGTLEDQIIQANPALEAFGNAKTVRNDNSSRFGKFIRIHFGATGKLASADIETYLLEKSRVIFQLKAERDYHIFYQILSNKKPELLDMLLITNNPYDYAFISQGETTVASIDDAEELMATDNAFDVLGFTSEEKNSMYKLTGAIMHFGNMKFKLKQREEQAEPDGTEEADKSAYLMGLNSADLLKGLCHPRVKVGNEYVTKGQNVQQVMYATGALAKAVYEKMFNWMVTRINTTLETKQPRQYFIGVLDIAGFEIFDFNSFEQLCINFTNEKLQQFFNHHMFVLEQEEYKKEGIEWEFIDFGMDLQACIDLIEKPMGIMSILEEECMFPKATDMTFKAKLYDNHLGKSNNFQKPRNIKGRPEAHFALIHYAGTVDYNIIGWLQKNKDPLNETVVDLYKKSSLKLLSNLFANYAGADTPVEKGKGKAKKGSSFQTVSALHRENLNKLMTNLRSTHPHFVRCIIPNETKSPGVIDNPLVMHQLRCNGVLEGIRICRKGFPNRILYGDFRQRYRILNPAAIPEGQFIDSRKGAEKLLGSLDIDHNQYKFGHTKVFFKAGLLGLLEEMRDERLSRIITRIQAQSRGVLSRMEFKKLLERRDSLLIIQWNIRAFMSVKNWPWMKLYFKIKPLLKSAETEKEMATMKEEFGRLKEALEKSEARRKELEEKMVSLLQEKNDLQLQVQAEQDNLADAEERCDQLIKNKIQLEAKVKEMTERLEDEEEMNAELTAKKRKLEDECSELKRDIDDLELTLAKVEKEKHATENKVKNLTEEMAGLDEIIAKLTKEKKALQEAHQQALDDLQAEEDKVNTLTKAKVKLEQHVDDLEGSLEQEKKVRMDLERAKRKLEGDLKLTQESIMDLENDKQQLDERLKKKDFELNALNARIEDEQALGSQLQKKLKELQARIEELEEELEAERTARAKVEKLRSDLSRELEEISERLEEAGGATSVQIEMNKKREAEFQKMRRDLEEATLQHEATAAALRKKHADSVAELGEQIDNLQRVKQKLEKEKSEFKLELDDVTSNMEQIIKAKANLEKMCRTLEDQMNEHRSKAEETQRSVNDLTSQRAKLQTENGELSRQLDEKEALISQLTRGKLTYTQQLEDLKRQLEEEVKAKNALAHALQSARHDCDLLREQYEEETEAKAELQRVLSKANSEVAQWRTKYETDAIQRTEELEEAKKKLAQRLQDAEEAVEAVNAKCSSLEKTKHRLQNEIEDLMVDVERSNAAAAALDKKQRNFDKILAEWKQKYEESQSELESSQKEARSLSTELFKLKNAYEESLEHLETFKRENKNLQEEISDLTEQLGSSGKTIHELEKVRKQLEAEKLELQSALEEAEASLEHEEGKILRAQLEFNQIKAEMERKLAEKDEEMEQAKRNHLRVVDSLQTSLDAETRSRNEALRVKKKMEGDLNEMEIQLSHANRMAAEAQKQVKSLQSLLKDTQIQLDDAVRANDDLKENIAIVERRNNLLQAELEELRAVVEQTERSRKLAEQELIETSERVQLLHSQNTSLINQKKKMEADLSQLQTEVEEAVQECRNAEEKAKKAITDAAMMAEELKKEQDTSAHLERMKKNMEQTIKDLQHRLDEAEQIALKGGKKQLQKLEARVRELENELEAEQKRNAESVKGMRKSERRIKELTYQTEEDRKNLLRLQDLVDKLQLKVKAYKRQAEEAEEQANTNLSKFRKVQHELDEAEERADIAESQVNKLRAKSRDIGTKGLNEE

SMILES | Rabbit Psoas IC25 [1] [µM] | Porcine Atria IC25 (Porcine Atria myofibrils) [µM] | Porcine Ventricle IC25 [2] [µM]
C[C@@H](NC(=O)C(C)(C)N1Cc2c(ccc(F)c2F)NC1=O)c1ncc(C#N)cc1F [Compound B266] | 0.95 | 0.05 | 1.38
C[C@H](NC(=O)C(C)(C)N1Cc2c(ccc(F)c2F)NC1=O)c1ncc(C#N)cc1F [Compound B267] | 18.40 | 0.18 | 3.96
C[C@@H](NC(=O)C1(N2Cc3c(ccc(F)c3F)NC2=O)CC1)c1ncc(C#N)cc1F [Compound B268] | 6.91 | 0.11 | 3.06
C[C@@H](NC(=O)CN1Cc2c(ccc(F)c2F)NC1=O)c1cc2cccnc2cn1 [Compound B270] | 100.00 | 1.18 | 100.00
C[C@H](NC(=O)CN1Cc2c(ccc(F)c2F)NC1=O)c1cc2cccnc2cn1 [Compound B271] | 100.00 | 100.00 | 55.13
C[C@@H](NC(=O)[C@H](C)N1Cc2c(ccc(F)c2F)NC1=O)c1ncc(C#N)cc1F [Compound B272] | 0.74 | 0.05 | 0.75
C[C@H](C(=O)N[C@H](C)c1ncc(C#N)cc1F)N1Cc2c(ccc(F)c2F)NC1=O [Compound B273] | 1.57 | 1.96 | 22.58
C[C@@H](NC(=O)CN1Cc2c(ccc(F)c2F)NC1=O)c1ccc2cnccc2n1 [Compound B274] | 100.00 | 1.10 | 95.97
C[C@H](NC(=O)CN1Cc2c(ccc(F)c2F)NC1=O)c1ccc2cnccc2n1 [Compound B275] | 100.00 | 8.27 | 100.00
C[C@@H](NC(=O)CN1Cc2cc3c(cc2NC1=O)OCCO3)c1ncc(C#N)cc1F [Compound B276] | 30.80 | 100.00 | 23.74
C[C@H](NC(=O)CN1Cc2cc3c(cc2NC1=O)OCCO3)c1ncc(C#N)cc1F [Compound B277] | 100.00 | 77.49 | 73.20
C[C@H](NC(=O)[C@H](C)N1Cc2c(ccc(F)c2F)NC1=O)c1ncc(C#N)cc1F [Compound B278] | 0.03 | 0.03 | 0.09
C[C@H](NC(=O)[C@@H](C)N1Cc2c(ccc(F)c2F)NC1=O)c1ncc(C#N)cc1F [Compound B279] | 0.57 | 0.11 | 0.70
C[C@@H](NC(=O)CN1Cc2c(ccc(F)c2F)NC1=O)c1ncc(C#N)s1 [Compound B280] | 1.08 | 0.61 | 6.55
C[C@@H](NC(=O)CN1Cc2c(ccc(F)c2F)NC1=O)c1ncc(C2COC2)cn1 [Compound B282] | 100.00 | 86.13 | 100.00
C[C@H](NC(=O)CN1Cc2c(ccc(F)c2F)NC1=O)c1ncc(C2COC2)cn1 [Compound B283] | 100.00 | 0.90 | 6.49
C[C@@H](NC(=O)CN1Cc2c(ccc(F)c2F)NC1=O)c1cc2ccccc2cn1 [Compound B284] | 100.00 | 0.87 | 0.44
C[C@H](NC(=O)CN1Cc2c(ccc(F)c2F)NC1=O)c1cc2ccccc2cn1 [Compound B285] | 100.00 | 100.00 | 100.00

SMILES | Rabbit Psoas IC25 [1] [µM] | Porcine Atria IC25 (Porcine Atria myofibrils) [µM] | Porcine Ventricle IC25 [2] [µM]
C[C@@H](NC(=O)CN1Cc2c(ccc(F)c2F)NC1=O)c1ccc2ncccc2n1 [Compound B286] | 40.68 | 0.55 | 8.79
C[C@H](NC(=O)CN1Cc2c(ccc(F)c2F)NC1=O)c1ccc2ncccc2n1 [Compound B287] | 100.00 | 75.65 | 100.00
C[C@@H](NC(=O)CN1Cc2c(ccc(F)c2F)NC1=O)c1ccc2ccccc2n1 [Compound B288] | 3.98 | 0.26 | 5.29
C[C@H](NC(=O)CN1Cc2c(ccc(F)c2F)NC1=O)c1ccc2ccccc2n1 [Compound B289] | 100.00 | 100.00 | 100.00
C[C@@H](NC(=O)CN1Cc2c(ccc(F)c2F)NC1=O)c1ncc(Br)cc1F [Compound B292] | 0.42 | 0.16 | 0.54
N#Cc1cnc2c(c1)CC[C@H]2NC(=O)CN1C(=O)Nc2ccc(F)cc2C12CC2 [Compound B294] | 1.83 | 46.59 | 39.99
N#Cc1cnc2c(c1)CC[C@@H]2NC(=O)CN1C(=O)Nc2ccc(F)cc2C12CC2 [Compound B295] | 0.17 | 0.25 | 0.35
O=C(CN1C(=O)Nc2ccc(F)c(F)c2C12CC2)N[C@@H]1COc2cc(F)cnc21 [Compound B296] | 0.06 | 0.07 | 0.39
Cc1cccc2c1C1(CC1)N(CC(=O)N[C@@H]1COc3cc(C#N)cnc31)C(=O)N2 [Compound B299] | 63.22 | 67.41 | 100.00
Cc1cccc2c1C1(CC1)N(CC(=O)N[C@H]1COc3cc(C#N)cnc31)C(=O)N2 [Compound B300] | 1.39 | 1.42 | 1.42
Cc1cccc2c1C1(CC1)N(CC(=O)N[C@H](C)c1cnc(C#N)cn1)C(=O)N2 [Compound B301] | 2.52 | 4.28 | 14.90
Cc1cccc2c1C1(CC1)N(CC(=O)N[C@@H](C)c1cnc(C#N)cn1)C(=O)N2 [Compound B302] | 5.65 | 1.08 | 2.85
N#Cc1cc(F)c2c(c1)OC[C@H]2NC(=O)CN1C(=O)Nc2cccc(C#N)c2C12CC2 [Compound B303] | 0.02 | 0.08 | 0.09
N#Cc1cc(F)c2c(c1)OC[C@@H]2NC(=O)CN1C(=O)Nc2cccc(C#N)c2C12CC2 [Compound B304] | 1.05 | 1.12 | 3.96
C[C@@H](NC(=O)CN1C(=O)Nc2ccc(F)c(F)c2C12CC2)c1ncc(C#N)cc1Cl [Compound B306] | 0.61 | 0.10 | 0.18
C[C@H](NC(=O)CN1C(=O)Nc2ccc(F)c(F)c2C12CC2)c1ncc(C#N)cc1Cl [Compound B307] | 0.02 | 0.05 | 0.07
Cc1cccc2c1C1(CC1)N(CC(=O)N[C@H](C)c1ncc(C#N)nc1C)C(=O)N2 [Compound B308] | 100.00 | 20.75 | 100.00
Cc1cccc2c1C1(CC1)N(CC(=O)N[C@@H](C)c1ncc(C#N)nc1C)C(=O)N2 [Compound B309] | 2.23 | 10.36 | 10.57
